Consider one substance from patent publication US12721828B2, “Pharmaceutical liquid composition, kit of parts comprising the pharmaceutical liquid composition, and method for preparing the pharmaceutical liquid composition” (MPERIUM B.V., priority 2019, dated 2026).

For data set [1] the following is noted: 1.88 mmol/ml (350 mg/mL SPB) in an aqueous solution.
The conditions of data set [2]: 350 mg/ml, 6 hours, room temperature, Watson-Marlow 505-S pump, tube diameter 0.2 mm, rpm 50. The method, then: A 6 hour test has been performed wherein a SPB oplossing (350 mg/ml) was circulated at room temperature by a Watson-Marlow 505-S pump, tube diameter 0.2 mm, rpm 50. The pump settings correspond to an almost dropwise output. The speed was controlled to be low to simulate a worst case situation to signal blocking of the tube and/or crystallization of the SPB solution in the tube.

Assay in data set [3]: not given
This is another data set of the same source.

Like-named read-outs stand apart in the source and are kept apart here.

In the case of Sodium Phenylbutyrate [SPB], the “pH of aqueous solution” value in data set [1] is given as over 8. For the same substance, in data set [2], the “blockage of the tube and crystallization of the SPB solution in the tube” value was “did not occur”. Also, for the setting “500 mg/ml”, the “dissolving in purified water” value is recorded as “required to pre-heat (40° C.) the purified water to dissolve the SPB completely”. Besides, the “behaviour during the dissolving process in purified water” value (SPB concentrations higher than 350 mg/ml) was “significant lumping”. Moreover, the crystallization on storage entry is given as “Only the SPB 500 mg/ml showed crystallization” in data set [3] (450 mg/ml, 400 mg/ml and 350 mg/ml solutions, 2 weeks at 25° C., 40° C. and 5° C.); “crystallization after 1 week” in data set [3] (500 mg/ml solution, clear glass bottles, 40° C.).
